Measurements as given in ChEMBL document CHEMBL6127149, “Novel Papain-Like Protease Inhibitors for Treating Viral Infections, in Particular Coronavirus Infections” (ACS Med Chem Lett, 2024).
pIC50: −log10 of the molar value.

Molecular target: Replicase polyprotein 1ab (Severe acute respiratory syndrome coronavirus 2, UniProt P0DTD1)
Assay: Inhibition of SARS-CoV-2 PLpro using Z-RLRGG-AMC as substrate preincubated for 30 mins followed by substrate addition and measured after 60 mins by SpectraMax microplate reader analysis

Compound | pIC50
CCOC(=O)[C@H]1O[C@@H]1C(=O)NNC(=O)CCc1ccccc1C(=O)N[C@H](N)c1cc(-c2cnn(C)c2)nc2ccccc12 | 8.70
COC(=O)[C@H]1O[C@@H]1C(=O)NNC(=O)CCc1ccccc1C(=O)N[C@H](N)c1cc(-c2cnn(C)c2)nc2ccccc12 | 8.70
Cn1cc(-c2cc([C@@H](N)NC(=O)c3ccccc3CCC(=O)NNC(=O)[C@H]3O[C@@H]3C(=O)O)c3ccccc3n2)cn1 | 9.00
CCOC(=O)[C@@H]1O[C@H]1C(=O)NNC(=O)CCc1ccccc1C(=O)N[C@H](N)c1cc(-c2cnn(C)c2)nc2ccccc12 | 8.70
